Reference: patent US20250034264A1, “REGULATING T CELL IMMUNE RESPONSE THROUGH IGF-I RECEPTOR (IGF-1R)” (The Regents of the University of Michigan, priority 2021, published 2025)

Assays:
fibrocytes [1] = assay: Gene promoter activity assay (Secrete-Pair Dual Luminescence); assay type: cell-based, human; conditions: 50 μg/mL
Description: Cell transfections, gene promoter assays and siRNA knockdown studies The nucleofection method was utilized to transfect fibrocytes with the U-023 program of the Nucleofector II instrument (Lonza, Walkersville, MD) and the Amaxa human CD34 cell nucleofection kit (cat. no. VPA-1003; Lonza). To assess human gene promoter activities, appropriate fragments described in earlier reports were selected and cloned for MHC II, CD80, CD86, and PD-L1. Confluent fibrocyte monolayers were treated with human Isotype IgG or teprotumumab (50 μg/mL) for 3 d. Cells were transfected with the following target gene promoter fragment sequences supplied by GeneCopoeia (Rockville, MD): MHC-2 (cat. #HPRM49526), −100 to +1429 nt; CD80 (cat. #HPRM45966), −300 to +1350 nt; CD86 (cat. #HPRM46979), −231 to +1272 nt; PD-L1 (cat. #HPRM40139), −237 to +1282 nt; and negative control clone PG04 (cat. #NEG-PG04). After 3-4 d, cells were incubated without or with bTSH (5 mU/mL) for 2 h. Monolayers were harvested and promoter activities measured using the Secrete-Pair Dual Luminescence Assay Kit (cat. #LF033, GeneCopoeia Rockville, MD) according to manufacturer's instructions in an FB12 tube luminometer (Zylux, Huntsville, AL). Values were normalized to internal controls and each experiment was performed at least three times. […]

fibrocytes [2] = assay: RNA Pol II ChIP transcription assay; assay type: cell-based, human; conditions: 50 μg/mL
Description: RNA Pol II ChIP transcription assay Transcriptional assays were performed using the method of Wells and Farnham (Methods (San Diego, Calif.) 26, 48-56(2002). Confluent cultures were treated with human Isotype IgG or teprotumumab (50 μg/mL) in DMEM with 10% FBS for 3 d, rinsed, and shifted to DMEM with 1% FBS for 16 h with the respective additives, and then treated without or with bTSH (5 mU/mL) for 2 h. Cross-linked protein/DNA and isolated chromatin fragments were immunoprecipitated with target antibodies: anti-HLA-DPB1 [EPR11226] (cat. #abl57210), anti-CD80 [EPR22183] (cat. #ab225674), anti-CD86 [EPR21962] (cat. #ab239075), and anti-PD-L1 [EPR19759](cat. #ab213524),) from Abcam (Cambridge, MA) using the Pierce™ Agarose Chip Kit (Thermo Scientific, cat #26156). Eluted fractions were reverse cross-linked and isolated DNA subjected to RT-PCR using EpiTect ChIP qPCR Primer Assay for human HLA-DRA (cat. #GPH1011269(-)02A, HLA-DRB1 (cat. #GPH1024837(-)02A), CD80 (cat. #GPH1023189(-)02A), CD86 (cat. #GPH1009502(-)02A), PD-L1 (cat. #GPH1012902(-)02A, Qiagen. GAPDH served as the housekeeping gene and values were generated according to the protocol provided by the supplier.

[3] = test system: circulating CD34+CXCR4+ fibrocytes; assay: Phase 2 TAO trial: MHC II and B7 proteins in circulating fibrocytes (flow cytometry); assay type: in vivo, human; conditions: TAO patients, 20 mg/Kg, 24-week treatment
Description: Studies of circulating CD34^+ fibrocytes and T cells PBMCs from patients with active, moderate to severe TAO enrolled in a phase 2 trial for teprotumumab were cryopreserved immediately after collection. Venous blood sampling occurred at baseline and at week 24, following 8 infusions at 3 weekly intervals. The post-treatment sample was obtained 3 weeks after the final infusion of active drug or placebo. Samples were thawed and incubated with 10% knockout serum replacement medium for 1h and stained. Rinsed samples were subjected to FACS analysis with a Calibur flow cytometer (BD). Viable cells were gated on the basis of forward light scatter. All samples were analyzed using quadrant settings based on negative staining with isotype control antibodies. Mean fluorescent intensity (MFI) was calculated as the ratio of mean sample to isotype control fluorescence. Data were analyzed with FCS Express software (De Novo Software, Ontario, CA).

GD-OF = assay: icIL-1RA and sIL-1RA protein (ELISA); assay type: cell-based, human
Description: FIGS. 11A-11F are graphs showing teprotumumab attenuates bTSH induced IL-10 while enhancing icIL-1RA and sIL-1RA expression in fibrocytes and GD-OF. Fibrocyte cultures were treated with teprotumumab (50 μg/ml), rhSlit2 (50 ng/ml) or human Isotype IgG for 7-9 d, with bTSH (5 mIU/mL) for final 6 h. RNA was extracted and reverse transcribed. Isolated cDNA was subjected to quantitative real-time PCR for IL-10 (FIGS. 11A and 11B), icIL-1RA (FIGS. 11C and 11D). Media and cellular proteins were collected and subjected to specific ELISAs for icIL-1RA and sIL-1RA (FIGS. 11E, 11F, 11G, and 11H). PCR values were normalized to their respective GAPDH levels. icIL-1RA and sIL-1RA protein levels were normalized to cellular protein levels. Data are expressed as the mean±SD of three independent determinations. Experiments were repeated three times. **, p<0.01; ***. P<0.001.

teprotumumab
activities of MHC II, CD80, CD86, PD-L1 gene promoter fragments (fibrocytes [1]; 3 days): downregulated | bTSH induction of each gene promoter fragment (fibrocytes [1]; bTSH 2 h): attenuated | basal and bTSH-induced transcription of MHC II, CD80, CD86, PD-L1 genes (fibrocytes [2]): attenuated | reduction of CD80 expression level compared to baseline [3]: 54% | reduction of CD86 expression level compared to baseline [3]: 47% | reduction of MHC-II expression level compared to baseline [3]: 40% | reduction of PD-L1 expression level compared to baseline [3]: 47% | icIL-1RA protein levels (GD-OF): upregulated | sIL-1RA protein levels (GD-OF): upregulated
